# Results as given in ChEMBL document CHEMBL3763010, “Inhibition of monoamine oxidase by benzoxathiolone analogues” (Bioorg Med Chem Lett, 2016).
# Assays:
# [1] = target: T1, Amine oxidase [flavin-containing] A (Homo sapiens, UniProt P21397)
# T1 sequence (P21397 whole entry): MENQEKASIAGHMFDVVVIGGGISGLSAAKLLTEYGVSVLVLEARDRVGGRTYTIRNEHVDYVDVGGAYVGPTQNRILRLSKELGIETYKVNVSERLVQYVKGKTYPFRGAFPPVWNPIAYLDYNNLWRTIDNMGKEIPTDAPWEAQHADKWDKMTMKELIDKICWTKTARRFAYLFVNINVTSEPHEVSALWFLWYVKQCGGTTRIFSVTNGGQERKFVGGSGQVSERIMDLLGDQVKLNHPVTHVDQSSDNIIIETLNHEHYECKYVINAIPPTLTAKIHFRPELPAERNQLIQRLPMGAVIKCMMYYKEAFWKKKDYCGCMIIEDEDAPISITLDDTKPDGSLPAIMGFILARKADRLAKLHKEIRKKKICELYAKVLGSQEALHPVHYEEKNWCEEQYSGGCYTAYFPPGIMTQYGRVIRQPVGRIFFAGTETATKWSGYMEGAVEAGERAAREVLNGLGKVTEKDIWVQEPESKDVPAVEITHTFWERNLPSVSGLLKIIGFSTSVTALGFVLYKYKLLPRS
# Description: Inhibition of recombinant human MAO-A after 20 mins using 50 uM kynuramine as substrate by fluorescence spectrophotometry
# [2] = target: T2, Amine oxidase [flavin-containing] B (Homo sapiens, UniProt P27338)
# T2 sequence (P27338 whole entry): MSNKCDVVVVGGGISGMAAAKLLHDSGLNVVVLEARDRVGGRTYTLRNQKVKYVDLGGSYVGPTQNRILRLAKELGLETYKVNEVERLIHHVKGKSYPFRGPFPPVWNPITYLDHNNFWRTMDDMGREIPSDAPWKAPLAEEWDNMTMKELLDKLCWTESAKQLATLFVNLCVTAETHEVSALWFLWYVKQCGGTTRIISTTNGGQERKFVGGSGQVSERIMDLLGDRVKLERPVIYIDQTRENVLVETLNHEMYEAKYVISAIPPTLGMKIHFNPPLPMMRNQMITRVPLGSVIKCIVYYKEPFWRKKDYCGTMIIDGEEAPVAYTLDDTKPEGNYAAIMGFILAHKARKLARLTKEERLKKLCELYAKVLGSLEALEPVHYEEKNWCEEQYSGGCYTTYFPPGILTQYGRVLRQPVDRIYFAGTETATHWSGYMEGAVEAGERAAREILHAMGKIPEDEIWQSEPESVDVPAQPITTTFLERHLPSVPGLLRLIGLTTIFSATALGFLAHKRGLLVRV
# Description: Inhibition of recombinant human MAO-B after 20 mins using 50 uM kynuramine as substrate by fluorescence spectrophotometry
# [3] = organism: Homo sapiens; experiment: Selectivity index, ratio of IC50 for recombinant human MAO-A to recombinant human MAO-B
# [4] = target: T1, Amine oxidase [flavin-containing] A; experiment: Reversible inhibition of recombinant human MAO-A assessed as enzyme activity recovered pretreated with compound for 15 mins followed by addition of 50 uM kynuramine as substrate measured after 24 hrs by dialysis; design: scale not given: the % may be the effect or the level left
# [5] = Lipophilicity, logP of the compound by shake-flask method; type: physicochemical; conditions: octanol/water
# [6] = target: T1, Amine oxidase [flavin-containing] A; experiment: Inhibition of recombinant human MAO-A assessed as enzyme activity pretreated with compound for 15 mins followed by addition of 50 uM kynuramine as substrate measured after 24 hrs; design: scale not given: the % may be the effect or the level left
# [7] = target: T1, Amine oxidase [flavin-containing] A; experiment: Inhibition of recombinant human MAO-A activity pretreated with compound for 15 mins followed by addition of 50 uM kynuramine as substrate by Michaelis-Menten method
# [8] = target: T1, Amine oxidase [flavin-containing] A; experiment: Competition inhibition of recombinant human MAO-A pretreated with compound for 15 mins followed by addition of 50 uM kynuramine as substrate by Lineweaver-Burk plot method
# [9] = target: T2, Amine oxidase [flavin-containing] B; experiment: Inhibition of recombinant human MAO-B assessed as enzyme activity pretreated with compound for 15 mins followed by addition of 50 uM kynuramine as substrate measured after 24 hrs; design: scale not given: the % may be the effect or the level left
# [10] = target: T2, Amine oxidase [flavin-containing] B; experiment: Competition inhibition of recombinant human MAO-B pretreated with compound for 15 mins followed by addition of 50 uM kynuramine as substrate by Lineweaver-Burk plot method
# [11] = target: T2, Amine oxidase [flavin-containing] B; experiment: Inhibition of recombinant human MAO-B pretreated with compound for 15 mins followed by addition of 50 uM kynuramine as substrate by Michaelis-Menten method
SMILES,IC50 [1] [µM],IC50 [2] [nM],Ratio IC50 [3],logP [5],Activity [6] [%],Ki [7] [nM],Ki [8] [nM],Activity [9] [%],Ki [10] [nM],Ki [11] [nM],Activity [4] [%]
O=c1oc2cc(O)ccc2s1 [TIOXOLONE],9.77,9570,1,,,,,,,,
C#CCN(C)Cc1ccccc1 [PARGYLINE],,,,,,,,,,,0.9

# The next lines start with results.
IC50 [1] [µM],IC50 [2] [nM],Ratio IC50 [3],logP [5],Activity [6] [%],Ki [7] [nM],Ki [8] [nM],Activity [9] [%],Ki [10] [nM],Ki [11] [nM],SMILES,Activity [4] [%]
26.7,62,,,,,,,,,O=C1OCc2cc(OCc3ccccc3)ccc21,
0.189,3,63,5.61,73,560,360,39,3.5,3.9,O=c1oc2cc(OCc3ccc(Cl)cc3)ccc2s1,93
5.14,51,101,3.8,,,,,,,O=c1oc2cc(OCc3ccccc3)ccc2s1,
